Results: patent EP0133259A2, “Aminoalkyl-substituted benzene derivatives, process for production thereof, and pharmaceutical composition thereof” (KOWA COMPANY, LTD., priority 1983, dated 1985)
Counter-ions that a name gives are not always drawn.

Experiments:
[1] = system: Chloroform-Induced Arrhythmia; test: Activity on chloroform-induced arrhythmia; format: in vivo, ICR-strain mice; settings: 100 mg/kg orally; for Antiarrhythmic activity: Rate of onset of VF / Antiarrhythmic activity: Rate of onset of VT: 10 mice per group; for Antiarrhythmic activity: Rate of onset of VF: ventricular fibrillation after chloroform vapor; for Antiarrhythmic activity: Rate of onset of VT: ventricular tachycardia after chloroform vapor; for Antiarrhythmic activity: Duration of activity: relative to the duration time of Lidocaine (+)
Description: Activity on Chloroform-Induced Arrhythmia:-ICR-strain mice having a body weight of 20 to 30 g (10 per group) were used, and the test compound was administered orally in a dose of 100 mg/kg. The mice were put in a 1-liter beaker, and observed for 20 minutes for their symptoms or conditions. Then, they were placed in a vessel saturated with a vapor of chloroform, and the time which elapsed until the animals ceased to breathe was measured. After the stopping of the breathing, the mice were taken out from the vessel and their cardiograms were taken. The rates of onset of ventricular tachycardia (VT) and ventricular fibrillation (VF) and their conditions were observed. The duration of activity was determined by using as a standard the time during which the mice were put in the chloroform- saturated vessel. […] Lidocaine was used as a comparative drug.

blood pressure = test: Hypotensive action (average blood pressure via carotid cannula, conscious animals); format: in vivo, Mice
Description: Hypotensive action:- • Mice having a body weight of about 30 g (5 per group) were used. Under anaesthesia with pentobarbital, the carotid was […] from each animal. A cannula was inserted into the animal and connected to a pressure transducer. A tracheal cannula was applied, and the animal was fixed on its back. After the animals awoke from anesthesia, their average blood pressures were measured by the pressure transducer.
The drug was orally administered in a dose of 30 mg/kg, and changes in the blood pressure were measured. Physiological saline was administered to a control group.
The drug used in Test Example 2 was the compound prepared in Example 6.

Compound | Antiarrhythmic activity: Rate of onset of VF [1] | Antiarrhythmic activity: Rate of onset of VT [1] | Antiarrhythmic activity: Duration of activity [1] | Average blood pressure (blood pressure; 30 mg/kg orally, 10 minutes after the administration) | Average blood pressure (blood pressure; 30 mg/kg orally, 30 minutes after the administration) | Average blood pressure (blood pressure; 30 mg/kg orally, 60 minutes after the administration) | Average blood pressure (blood pressure; 30 mg/kg orally, 120 minutes after the administration) | Average blood pressure (blood pressure; before administration, 5 mice per group) | Condition ([1]; symptoms observed for 20 minutes, indicated when the same tendency was seen in all subjects)
COc1ccc(OCC(F)(F)F)cc1NC(=O)CC(C)N (stereo not drawn) [Example 3, 3-Amino-2'-methoxy-5'-(2,2,2-trifluoroethoxy)-butyranilide-hemifumarate] | 0/10 | 2/10 | +++ |  |  |  |  |  | 
COc1ccc(OCCO[N+](=O)[O-])cc1OCC(C)N (stereo not drawn) [Example 4, 1-[2-Methoxy-5-(2-nitroxyethoxy)phenoxy]-2-propanamine.maleate] | 0/10 | 4/10 | ++ |  |  |  |  |  | 
Cc1ccc(OCC(F)(F)F)cc1NC(=O)C(C)N (stereo not drawn) [Example 38, 2-Amino-2'-methyl-5'-(2,2,2-trifluoroethoxy)-propionanilide] | 2/10 | 5/10 | + |  |  |  |  |  | 
Cc1cc(OCC(F)(F)F)cc(C)c1NC(=O)C(C)N (stereo not drawn) [Example 41, 2-Amino-2',6^1-dimethyl-4^1-(2,2,2-trifluoroethoxy)propionanilide·hydrochloride] | 1/10 | 0/10 | +++ |  |  |  |  |  | 
Cc1cc(OCCO[N+](=O)[O-])cc(C)c1NC(=O)C(C)N (stereo not drawn) [Example 6, 2-Amino-2',6'-dimethyl-4'-(2-nitroxyethoxy)-propionanilide·hydrochloride] | 0/10 | 1/10 | ++ | 73.3 ±8.5 (*) mmHg | 76.4 ±7.8 (*) mmHg | 77.4 ±8.1 (*) mmHg | 80.3 ±8.0 (**) mmHg | 86.3 ±6.8 mmHg | 
CCN(CC)CC(=O)Nc1c(C)cccc1C [Lidocaine, reference compound] | 2/10 | 0/10 | + |  |  |  |  |  | Weak sedation
CC(N)C(=O)Nc1cc(OCCO[N+](=O)[O-])ccc1F (stereo not drawn) [Example 24, 2-Amino-2'-fluoro-5'-(2-nitroxyethoxy)propionanilide] | 0/10 | 2/10 | + |  |  |  |  |  | 
Cc1ccc(OCC(F)(F)F)cc1NC(=O)CC(C)N (stereo not drawn) [Example 40, 3-Amino-2'-methyl-5'-(2,2,2-trifluoroethoxy)-butyranilide·hydrochloride] | 0/10 | 0/10 | +++ |  |  |  |  |  | 
Cc1ccc(OCCO[N+](=O)[O-])cc1NC(=O)CC(C)N (stereo not drawn) [Example 22, 3-Amino-2'-methyl-5'-(2-nitroxyethoxy)butyr.- anilide-hydrochloride] | 0/10 | 0/10 | ++ |  |  |  |  |  | 
